Results on 3 compounds are retold here after patent publication US20160008298A1, “XANTHOHUMOL-BASED COMPOUNDS AND COMPOSITIONS THEREOF, AND METHODS OF MAKING AND USING THE SAME” (Oregon State University, priority 2014, published 2016).

The test system of data set [1] is C2C12 skeletal muscle cells. Put plainly: Seahorse OCR and ECAR measurements after oligomycin. In kind it is cell-based, mouse. Particulars: oligomycin 1 μM; for ECAR plateau after injection of oligomycin: % pre oligomycin values. The method, then: OCR and ECAR measurements were performed with a Seahorse XF 24 Analyzer (Seahorse Bioscience). Cells were plated 24 hours prior to measurements at a density of 40,000 cells per well within growth medium in a 24-well plate. The cells were then allowed to adhere for 24 hours (37° C., 5% CO2). Prior to the assay, the cells were washed with freshly prepared running media consisting of Seahorse XF Assay medium (Seahorse Bioscience, North America, USA), 10 mM glucose and 1 mM sodium pyruvate. The pH of the medium was adjusted to 7.4 with 1 M NaOH. The cells were then equilibrated for one hour at 37° C. without CO2. The compounds were injected during the assay; OCR and ECAR were measured at 9 minutes measurement intervals. The solutions of oligomycin, FCCP, XN, DXN and TXN were freshly prepared in running medium. The final concentrations in the wells were: 1 μM for oligomycin, 5 μM for XN, DXN and TXN and 2, 5, 8, 25 μM for the dose response experiments with DXN. Ethanol was added to the control wells not to exceed a final concentration of 0.1%. All the compounds were tested in quadruplicate on the 24-well plate. XN is highly non-polar and FBS can be used to dissolve XN. Thus, XN, DXN and TXN were first dissolved in ethanol and the resulting solutions were diluted 100-fold in running medium containing 1% of FBS. After a further 10-fold dilution into the media in wells, only 0.1% of FBS was present during OCR measurements. […] The concentration of oligomycin and the cell density used were selected based on preliminary experiments.
Seahorse data were analyzed in SAS 9.2 (SAS Institute Inc., Cary, N.C.). To show a consistent baseline, OCR values (in pmol/min/mg protein) and ECAR values (in mpH/min/mg protein) for each value were divided prior to statistical analysis by the average of the four pre oligomycin treatment values (0, 8, 17, and 25 minutes) for the corresponding well and are shown as % pre oligomycin values. The original scale for OCR and for ECAR values was utilized for the OCR/ECAR ratio (in pMol/mpH). To account for repeated measures within wells over time, a repeated-measures-in-time design using ANOVA procedures in PROC MIXED was used. Fixed effects in the model were treatment (control, 2 μM DXN, 5 μM XN, 5 μM DXN, and 5 μM TXN for the compound study and control, 2, 5, 8, and 25 μM DXN for the DXN dosage study), time (0, 8, 17, 25, 34, 43, 52, 60, 69, 78, 86, and 95 minutes), and their interaction. The random effect was the experiment (5 experiments for the compound study and 3 experiments for the DXN dosage study). To account for repeated measures within wells over time, a first order homogeneous variance-covariance matrix [AR(1)] was fitted for each well. Using the ESTIMATE statement, a priori contrasts were constructed by comparing the changes in compound treated cells from the last two time points prior to compound treatment (average 52 and 60 minutes) to the changes in control cells during the same time period. This was done for each compound and dosage for 69, 78, 86, and 95 minutes separately and for all four time points combined. […] A P-value of 0.05 was considered statistically significant and is shown as star in the graphs (FIG. 5).

The test system of data set [2] is mitochondrial transmembrane potential in C2C12 cells. Put plainly: JC-1 assay of mitochondrial transmembrane potential. In kind it is cell-based, mouse. As to conditions: 2.5 μM.
Experimental: Cells were plated at a density of 80,000 cells per well in black 96-well plates and incubated for 24 hours at 37° C. (5% CO2). They were then treated with fresh solutions of various concentrations of XN, DXN or TXN in growth medium. The final concentrations of XN, DXN, TXN were 1, 2, 5, 8, 25, 50 μM, all in quadruplicate wells, in the 96-well plates. After one hour of exposure to the compounds at 37° C. (5% CO2), the cells were treated with 10 μL of a JC-1 staining solution (freshly prepared by diluting 11 fold 100 μL of the JC-1 agent furnished from the assay kit). After 15 to 30 minutes of incubation (37° C., 5% CO2), the cells were washed three times with the Cell-Based Assay Buffer (prepared by dissolving three buffer tablets of the kit in 300 mL of MilliQ water). The plates were then analyzed by a fluorescent plate reader (SpectraMax Gemini XS) at 560-595 nm and 485-535 nm.
JC-1 can selectively enter into mitochondria and reversibly change color from green to red as the membrane potential increases. In healthy cells with high mitochondrial transmembrane potential, JC-1 spontaneously forms complexes known as J-aggregates with intense red fluorescence with excitation and emission at 560 nm and 595 nm, respectively. […] The ratio of fluorescence intensity of J-aggregates to fluorescence intensity of J-monomers can be used as an indicator of cell heath or mitochondrial state. […] A decrease in the values of the ratios compared to the control is indicative of an alteration in the potential across the mitochondrial membrane.
The next data set deals with plasma membrane. As to conditions: cited from earlier work.
A further data set has as its system mice. As to conditions: mouse; cited from earlier work.

SMILES strings stand for the structures.

For `CC[C@H]1/C=C/C=C/C[C@@H](C)[C@H](O)[C@@](C)(O)C(=O)[C@@H](C)[C@H](O)[C@@H](C)C(=O)[C@@H](C)[C@H](O)[C@@H](C)/C=C/C(=O)O[C@@H]2[C@H](C)[C@H](CC1)O[C@]1(CC[C@H](C)[C@H](C[C@@H](C)O)O1)[C@H]2C` [oligomycin, reference compound], in data set [1] (DXN dosage experiment), the “residual OCR after oligomycin” value is given as 51.4±6.3%. Also, the “ECAR plateau after injection of oligomycin” value in data set [1] (DXN dosage study) stood at 151.1±3.4%; in data set [1] (compound study), 160.1±5.1%.

`N#CC(C#N)=NNc1ccc(OC(F)(F)F)cc1` [FCCP, carbonyl cyanide-4-(trifluoromethoxy)phenylhydrazone, reference compound]: the “ratio value of aggregates to monomers (JC-1, percent of control)” value in data set [2] was 33.0±5.6%. In addition, the “concentration from which the plasma membrane is depolarized” value in the data set with plasma membrane was “above 2.5 μM”.

For `O=[N+]([O-])c1ccc(O)c([N+](=O)[O-])c1` [dinitrophenol, reference compound], the 50% lethal dose (LD50) (usually the dose expected to kill half of the subjects tested) in the data set with mice is reported as 45 mg/kg.
